EP0295604A1, “(E)-2-(p-Fluorophenethyl)-3-fluoroallylamine” (MERRELL DOW PHARMACEUTICALS INC., priority 1987, dated 1988)
Blank lines part the entries; values can stand above or below the molecule they belong to.

What was measured:
[1] = system: MAO-A; test: Chronic (14 day) oral administration, rat tissue MAO-A activity; assay type: in vivo
Description: Following repeated daily administration for 14 days, (E)-2-p-fluorophenethyl)-3-fluoroallylamine remained selective for the MAO-B enzyme. From the irreversible inhibition, mode of action and the long half-life of the enzyme, a lower daily dose is needed to inhibit the enzyme.

[2] = system: Striatal dopamine; test: Prevention of MPTP neurotoxicity (striatal dopamine); assay type: in vivo; details: mice
Description: MPTP given parenterally to mice depletes striatal dopamine. This effect can be prevented by MAO-B, but not by MAO-A inhibitor.

[3] = system: tachycardia response to tyramine; test: Potentiation of the cardiovascular effects of tyramine (tachycardia response); assay type: in vivo; details: for Tyramine potentiation ratio i.d.: intraduodenal tyramine 0.3-50 mg/kg; for Tyramine potentiation ratio i.v.: intravenous tyramine 1.25-80 µg/kg
Description: Non-selective and MAO-A selective inhibitors are known to produce dangerous cardiovascular interactions with tyramine containing foods; the so-called "cheese reaction". L-Deprenyl is devoid of this effect.

[4] = target: T1, rat brain mitochondrial MAO-A (Rattus norvegicus, UniProt P21396); test: In vitro inhibition of rat brain mitochondrial MAO-A; assay type: biochemical
T1 construct: from tissue; host or cells: rat brain mitochondria
T1 sequence (P21396 1-526): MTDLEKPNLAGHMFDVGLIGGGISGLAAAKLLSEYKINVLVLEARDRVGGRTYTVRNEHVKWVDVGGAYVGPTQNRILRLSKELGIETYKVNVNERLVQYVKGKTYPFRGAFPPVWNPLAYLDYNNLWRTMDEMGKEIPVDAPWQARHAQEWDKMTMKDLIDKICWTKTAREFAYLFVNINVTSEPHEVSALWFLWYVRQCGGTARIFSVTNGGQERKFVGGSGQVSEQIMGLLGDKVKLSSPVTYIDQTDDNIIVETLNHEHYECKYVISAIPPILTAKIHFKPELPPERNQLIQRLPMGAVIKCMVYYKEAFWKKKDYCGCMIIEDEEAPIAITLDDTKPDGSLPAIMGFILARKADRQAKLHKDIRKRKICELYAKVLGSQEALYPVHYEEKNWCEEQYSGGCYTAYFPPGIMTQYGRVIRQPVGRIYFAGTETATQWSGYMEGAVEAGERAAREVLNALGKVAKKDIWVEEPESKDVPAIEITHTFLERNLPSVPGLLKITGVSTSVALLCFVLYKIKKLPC
Description: In vivo, the compound is active orally, is potent and with a selectivity ratio of 44 remains selective for MAO-B.

[5] = system: MAO-B; test: Chronic (14 day) oral administration, rat tissue MAO-B activity; assay type: in vivo
[6] = target: T2, rat brain mitochondrial MAO-B (Rattus norvegicus, UniProt P19643); test: In vitro inhibition of rat brain mitochondrial MAO-B; assay type: biochemical; details: MAO-A vs MAO-B IC50
T2 sequence (P19643 1-520): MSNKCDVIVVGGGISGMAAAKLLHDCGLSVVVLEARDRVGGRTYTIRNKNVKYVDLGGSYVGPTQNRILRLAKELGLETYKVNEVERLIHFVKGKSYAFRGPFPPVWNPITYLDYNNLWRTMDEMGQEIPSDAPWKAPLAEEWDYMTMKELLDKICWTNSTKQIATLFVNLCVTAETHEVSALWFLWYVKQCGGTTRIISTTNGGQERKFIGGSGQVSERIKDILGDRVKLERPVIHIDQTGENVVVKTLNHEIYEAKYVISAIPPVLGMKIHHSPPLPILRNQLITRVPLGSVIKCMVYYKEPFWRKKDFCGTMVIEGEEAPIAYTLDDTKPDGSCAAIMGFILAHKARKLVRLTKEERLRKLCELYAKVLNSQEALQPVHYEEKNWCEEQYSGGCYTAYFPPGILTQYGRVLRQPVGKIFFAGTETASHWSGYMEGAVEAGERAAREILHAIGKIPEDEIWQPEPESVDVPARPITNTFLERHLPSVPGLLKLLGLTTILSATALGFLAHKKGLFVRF

- IC50 [4]: 680 nM
- selectivity ratio in favor of MAO-B inhibition [6]: 190
Compound: NC/C(=C/F)CCc1ccc(F)cc1 [(E)-2-(p-fluorophenethyl)-3-fluoroallylamine]
- ED50 MAO-A ([1]; Brain): > 5 mg/kg p.o.
- ED50 MAO-A ([1]; Duodenum): >>5 mg/kg p.o.
- ED50 MAO-A ([1]; Heart): 5 mg/kg p.o.
- ED50 MAO-A ([1]; Liver): > 5 mg/kg p.o.
- Striatal dopamine ([2]; MPTP plus compound): 16.0 ± 0.4 ug/g ± SEM
- Striatal dopamine ([2]; compound alone, 1.25 mg/kg i.p.): 16.6 ± 0.9 ug/g ± SEM
- Tyramine potentiation ratio i.d. ([3]; 1.8 mg/kg p.o.): 1.4
- Tyramine potentiation ratio i.v. ([3]; 1.8 mg/kg p.o.): 0.8
- Tyramine potentiation ratio i.d. ([3]; 9 mg/kg p.o.): 1.3
- Tyramine potentiation ratio i.v. ([3]; 9 mg/kg p.o.): 1.8
- interactions with tyramine ([3]; given acutely at 10 and 50 times the ED50 dose for inhibition of MAO-B): devoid of interactions with tyramine
- ED50 MAO-B ([5]; Brain): 0.025 mg/kg p.o.
- ED50 MAO-B ([5]; Duodenum): 0.25 mg/kg p.o.
- ED50 MAO-B ([5]; Heart): 0.5 mg/kg p.o.
- ED50 MAO-B ([5]; Liver): 0.01 mg/kg p.o.

Compound: CN1CC=C(c2ccccc2)CC1 [MPTP, N-methyl-4-phenyl-1,2,3,6-tetrahydropyridine, reference compound]
- Striatal dopamine ([2]; MPTP alone, 20 mg/kg i.p.): 4.3 ± 0.4 ug/g ± SEM
